From US20170007700A1, “COMPOSITIONS AND METHODS FOR BORON NEUTRON CAPTURE THERAPY” (THE CURATORS OF THE UNIVERSITY OF MISSOURI, priority 2014, published 2017)

Assay: Metabolic transformation of TAC and MAC in vivo (MALDI-MS of mouse urine)
Parameters: species or system mice
Details: for metabolic degradation in vivo: mice given TAC/MAC liposomes
Text: One of the components of in vivo biodistribution study of TAC/MAC liposomes in mice was identification of any metabolic transformation of either TAC or MAC in the body. Metabolic degradation of TAC was not observed in vivo. […] Three main metabolites of MAC were identified in mouse urine by matrix-assisted laser desorption […] mass spectrometry (MALDI-MS) analysis and are illustrated in FIG. 4.

| main metabolites identified in mouse urine (MALDI-MS) | metabolic degradation in vivo | Substance |
| --- | --- | --- |
| Three | expelled without change | K[nido-7-CH3(CH2)15-7,8-C2B9H11] [MAC] |
| – | not observed | Na3[1-(2′-B10H9)-2-NH3B10H8] [TAC] |
